Counter-ions that a name gives are not always drawn.
Key:
[1] = Cytotoxicity in HeLa cells (ATP content, ATPlite kit); assay type: cell-based; conditions: human, three days incubation, read-out: TOX HELA pCC50 (converted)
Description: (§1) Glycosaminoglycan sulfation requirements for respiratory syncytial virus infection; Journal of virology (2000), 74(22), 10508-13) and was in-licensed from the NIH (Bethesda, Md., USA). Finally, 20 μL of a HeLa cell suspension (3,000 cells/well) were plated. Medium, virus- and mock-infected controls were included in each test. The wells contain 0.05% DMSO per volume. Cells were incubated at 37° C. in a 5% CO2 atmosphere. Three days post-virus exposure, viral replication was quantified by measuring GFP expression in the cells by an in house developed MSM laser microscope (Tibotec. Beerse, Belgium). The EC50 was defined as the 50% inhibitory concentration for GFP expression. In parallel, compounds were incubated for three days in a set of white 384-well microtiter plates (Corning) and the cytotoxicity of compounds in HeLa cells was determined by measuring the ATP content of the cells using the ATPlite kit (PerkinElmer, Zaventem, Belgium) according to the manufacturer's instructions. The CC50 was defined as the 50% concentration for cytotoxicity.

[2] = test system: rgRSV224 virus; assay: Antiviral activity: rgRSV224 (GFP) replication in HeLa cells; assay type: cell-based, respiratory syncytial virus (RSV); conditions: human respiratory syncytial virus, HeLa, 72 h, read-out: RSV HELA pEC50, rgRSV224 virus (MOI=1), HeLa cells, GFP expression, three days post-virus exposure (converted)
Description: Black 384-well clear-bottom microtiter plates (Corning, Amsterdam, The Netherlands) were filled via acoustic drop ejection using the echo liquid handler (Labcyte, Sunnyvale, Calif.), 200 nL of compound stock solutions (100% DMSO) were transferred to the assay plates, 9 serial 4-fold dilutions of compound were made, creating per quadrant the same compound concentration. The assay was initiated by adding 10 μL of culture medium to each well (RPMI medium without phenol red, 10% FBS-heat inactivated, 0.04% gentamycin (50 mg/mL). All addition steps are done by using a multidrop dispenser (Thermo Scientific, Erembodegem, Belgium). Next, rgRSV224 virus (MOI=1) diluted in culture medium was added to the plates, rgRSV224 virus is an engineered virus that includes an additional GFP gene (Hallak L K, Spillmann D. Collins P L, Peeples M E.
as §1

| Structure (SMILES) | CC50 at 3 days [1] | melting point | EC50 [2] |
| --- | --- | --- | --- |
| c1cnc(-c2cccc3cc[nH]c23)c(N2CCN(c3ccncc3)CC2)c1 [Compound 39] | 55 µM | 162 °C | 0.851 µM |
| Clc1cc(N2CCN(c3cccnc3-c3ccccc3)CC2)ccn1 [Compound 32] | 0.135 µM | 122 °C | 0.105 µM |
| c1cnc(N2CCN(c3ccncc3)CC2)c(N2CCN(c3ccncc3)CC2)c1 [Compound 69] | 40.7 µM | 186 °C | 0.933 µM |
| c1cc(N2CCN(c3nccnc3-c3ccc4occc4c3)CC2)ccn1 [Compound 7] | > 97.7 µM |  | 0.871 µM |
| CN(C)c1ccc(-c2ncccc2N2CCN(c3ccncc3)CC2)cc1 [Compound 34] | 74.1 µM |  | 0.295 µM |
| c1cnc(-c2ccc(C3CCCCC3)cc2)c(N2CCN(c3ccncc3)CC2)c1 [Compound 61] | 3.47 µM |  | 0.832 µM |
| COc1cc(N2CCN(c3cccnc3-c3ccccc3)CC2)ccn1 [Compound 29] | 0.257 µM |  | 0.123 µM |
| N#CCCn1ccc2cc(-c3ncccc3N3CCN(c4ccncc4)CC3)ccc21 [Compound 51] | 55 µM |  | 0.0741 µM |
| N#CCCn1ccc2ccc(-c3ncccc3N3CCN(c4ccncc4)CC3)cc21 [Compound 48] | > 100 µM |  | 0.166 µM |
| COc1cc(-c2ncccc2N2CCN(c3ccncc3)CC2)ccn1 [Compound 18] | > 97.7 µM |  | 0.832 µM |
| Cn1c(-c2ncccc2N2CCN(c3ccncc3)CC2)cc2ccccc21 [Compound 40] | 53.7 µM |  | 0.0251 µM |
| COCCCn1c(-c2ncccc2N2CCN(c3ccncc3)CC2)cc2ccccc21 (as salt: fumarate) |  | 168 °C |  |
| OC1(c2ccccc2)CCN(c2ncccc2N2CCN(c3ccncc3)CC2)CC1 [Compound 73] | 63.1 µM |  | 0.631 µM |
| Cn1cc(-c2ccc(-c3ncccc3N3CCN(c4ccncc4)CC3)cc2)cn1 [Compound 66] | 70.8 µM |  | 0.933 µM |
| COc1ccc(-c2ncccc2N2CCN(c3ccncc3)CC2)cc1OC [Compound 16] | > 100 µM |  | 0.977 µM |
| Cn1nccc1-c1ccc(-c2ncccc2N2CCN(c3ccncc3)CC2)cc1 [Compound 67] | 97.7 µM |  | 0.407 µM |
| c1cnc(-c2cccc3[nH]ccc23)c(N2CCN(c3ccncc3)CC2)c1 |  | 262 °C |  |
| Clc1ccc(-c2ncccc2N2CCN(c3ccncc3)CC2)c(Cl)c1 [Compound 14] | 40.7 µM |  | 0.186 µM |
| COc1ccc(C(O)c2ncccc2N2CCN(c3ccncc3)CC2)cc1 (stereo not drawn) [Compound 71] | > 100 µM |  | 39.8 µM |
| COc1ccc(-c2ncccc2N2CCN(c3ccncc3)CC2)cc1 [Compound 5] | > 100 µM |  | 0.427 µM |
| COc1ccc(C(O)(c2ccc(OC)cc2)c2ncccc2N2CCN(c3ccncc3)CC2)cc1 [Compound 64] | > 93.3 µM |  | 0.0501 µM |
| Clc1cccc(-c2ncccc2N2CCN(c3ccncc3)CC2)c1 [Compound 3] | > 100 µM |  | 0.55 µM |
| Clc1ccc(-c2ncccc2N2CCN(c3ccncc3)CC2)cc1 [Compound 15] | 0.891 µM |  | 0.309 µM |
| COc1ccc(C(C)(O)c2ncccc2N2CCN(c3ccncc3)CC2)cc1 (stereo not drawn) [Compound 72] | > 100 µM |  | 0.525 µM |
| N#Cc1ccc(-c2ncccc2N2CCN(c3ccncc3)CC2)cc1 [Compound 28] | > 100 µM |  | 0.589 µM |
| c1ccc(Cc2nccnc2N2CCN(c3ccncc3)CC2)cc1 [Compound 53] | 75.9 µM |  | 3.39 µM |
| CC1CN(c2cccnc2-c2ccc3ccn(C)c3c2)CCN1c1ccncc1 (stereo not drawn) [Compound 52] | 44.7 µM |  | 0.0135 µM |
| CC(C)Oc1ccc(-c2ncccc2N2CCN(c3ccncc3)CC2)cn1 [Compound 19] | 19.1 µM |  | 0.525 µM |

Reference: patent US10150761B2, “Substituted pyridine-piperazinyl analogues as RSV antiviral compounds” (Janssen Sciences Ireland UC, priority 2013, dated 2018)
